# Experiments:
# [1] = tested on: chloramphenicol-susceptible E. coli strain; assay: minimum inhibitory concentration (MIC); type: cell-based; details: Escherichia coli
# [2] = tested on: chloramphenicol-resistant E. coli strain; assay: minimum inhibitory concentration (MIC); type: cell-based; details: Escherichia coli
# [3] = tested on: chloramphenicol-susceptible and chloramphenicol-resistant E. coli strains; assay: AST test in microfluidic device, phase contrast images (FIG. 15); type: cell-based, Escherichia coli; details: both strains exposed to 6 μg/ml chloramphenicol; images taken 15 min apart
# Excerpt: The microfluidic device of the embodiments can be used for various applications. An example of such application is antibiotic susceptibility testing (AST). For example, the microfluidic device 1 shown in FIG. 10 can be used for this purpose. In such a case, the sample strain can be loaded from, for instance, the common second fluid port 33A using the first fluid ports 31A′, 31B′, 31C′ as output ports for excess cells and culture medium and the common third fluid port 51 as output port for culture medium and for sucking cells into the cell channels. In an example, during loading culture medium is flown from the common second fluid port 33C to the common second fluid port 33B to prevent contaminating the common second fluid port 33C. After cell loading culture medium preferably flows from the common second fluid port 33C using the first fluid ports 31A′, 31B′, 31C′ and the common third fluid port 51 as output ports. At this stage growth of the cells in the cell channels can be monitored for some time, 0 min to days, while imaging the cells in the different cell channels. […] Susceptibility is monitored by the phenotypic response to antibiotic in the different cell channels. […] Some phenotypic changes are best studied by addition of test agents, such as 4′,6-diamidino-2-phenylindole (DAPI) and SYTOX® fluorescent stains, that can be monitored in a florescence channel. […]
# [4] = tested on: ciprofloxacin resistant E. coli strain DA20859; assay: minimum inhibitory concentration (MIC); type: cell-based; details: Escherichia coli
# [5] = tested on: ciprofloxacin resistant E. coli strain DA20859; assay: AST in microfluidic device, average growth rate response by phase contrast time lapse imaging (FIG. 18); type: cell-based, Escherichia coli
# Excerpt: The microfluidic device of the embodiments can be used for various applications. An example of such application is antibiotic susceptibility testing (AST). For example, the microfluidic device 1 shown in FIG. 10 can be used for this purpose. In such a case, the sample strain can be loaded from, for instance, the common second fluid port 33A using the first fluid ports 31A′, 31B′, 31C′ as output ports for excess cells and culture medium and the common third fluid port 51 as output port for culture medium and for sucking cells into the cell channels. In an example, during loading culture medium is flown from the common second fluid port 33C to the common second fluid port 33B to prevent contaminating the common second fluid port 33C. After cell loading culture medium preferably flows from the common second fluid port 33C using the first fluid ports 31A′, 31B′, 31C′ and the common third fluid port 51 as output ports. At this stage growth of the cells in the cell channels can be monitored for some time, 0 min to days, while imaging the cells in the different cell channels. The AST test starts by flowing different antibiotics or a same antibiotic but at different concentrations into the different sets 2A, 2B, 2C of cell channels using the first fluid ports 31A, 31B, 31C as input ports, while using the common second fluid ports 33A, 33B, 33C and the common third fluid port 51 as output ports. Susceptibility is monitored by the phenotypic response to antibiotic in the different cell channels. For example, it is possible to determine the average growth rate and the cell to cell distribution of growth rates just by monitoring the length extension in phase contrast using automatics images analysis routines. These measurements can be averaged over cells in many cell channels such that it is possible to determine minute phenotypic changes within a few minutes. Phenotypic changes can also be in morphological changes, such as the compaction of DNA or changes in membrane structure or in integrity. Some phenotypic changes are best studied by addition of test agents, such as 4′,6-diamidino-2-phenylindole (DAPI) and SYTOX® fluorescent stains, that can be monitored in a florescence channel.
# The E. coli strain was exposed to (1) no drug marked with “x”, (2) erythromycin at 120 μg/ml marked with diamonds or (3) ciprofloxacin 10 μg/ml marked with circles. The time point 0 min corresponds to the start of the treatment. The curve corresponding to treatment with the drug (erythromycin) for which the strain is susceptible can be distinguished from the no treatment curve in <10 min. The curve corresponding to treatment with the drug for which the strain is susceptible can be distinguished from the curve corresponding to the drug (ciprofloxacin) for which the strain is resistant in <15 min.
# [6] = tested on: erythromycin-resistant E. coli strain; assay: minimum inhibitory concentration (MIC); type: cell-based; details: Escherichia coli
# [7] = tested on: erythromycin-susceptible (non-resistant) E. coli strains; assay: minimum inhibitory concentration (MIC); type: cell-based; details: Escherichia coli; two non-resistant E. coli strains (circles and diamonds in FIG. 17)
# [8] = tested on: erythromycin-resistant and erythromycin-susceptible E. coli strains; assay: AST in microfluidic device, average growth rate response (FIG. 17); type: cell-based, Escherichia coli; details: 120 μg/ml erythromycin at time 0 min
# Excerpt: The microfluidic device of the embodiments can be used for various applications. An example of such application is antibiotic susceptibility testing (AST). For example, the microfluidic device 1 shown in FIG. 10 can be used for this purpose. In such a case, the sample strain can be loaded from, for instance, the common second fluid port 33A using the first fluid ports 31A′, 31B′, 31C′ as output ports for excess cells and culture medium and the common third fluid port 51 as output port for culture medium and for sucking cells into the cell channels. In an example, during loading culture medium is flown from the common second fluid port 33C to the common second fluid port 33B to prevent contaminating the common second fluid port 33C. After cell loading culture medium preferably flows from the common second fluid port 33C using the first fluid ports 31A′, 31B′, 31C′ and the common third fluid port 51 as output ports. At this stage growth of the cells in the cell channels can be monitored for some time, 0 min to days, while imaging the cells in the different cell channels. […] Susceptibility is monitored by the phenotypic response to antibiotic in the different cell channels. […] Some phenotypic changes are best studied by addition of test agents, such as 4′,6-diamidino-2-phenylindole (DAPI) and SYTOX® fluorescent stains, that can be monitored in a florescence channel.
structure (smiles),measurement,setting,value
O=C(N[C@H](CO)[C@H](O)c1ccc([N+](=O)[O-])cc1)C(Cl)Cl [chloramphenicol],MIC,[1],~4 µg/mL
same,MIC,[2],> 12 µg/mL
same,growth of susceptible strain compared with resistant strain,[3],grown much less than the chloramphenicol-resistant strain
O=C(O)c1cn(C2CC2)c2cc(N3CCNCC3)c(F)cc2c1=O [ciprofloxacin],MIC,[4],~30 µg/mL
same,susceptibility of the strain to the drug,[5],resistant
CC[C@H]1OC(=O)[C@H](C)[C@@H](O[C@H]2C[C@@](C)(OC)[C@@H](O)[C@H](C)O2)[C@H](C)[C@@H](O[C@@H]2O[C@H](C)C[C@H](N(C)C)[C@H]2O)[C@](C)(O)C[C@@H](C)C(=O)[C@H](C)[C@@H](O)[C@]1(C)O [erythromycin],MIC,[6],256 µg/mL
same,MIC,[7],~12 µg/mL
same,time in which resistant strain can be distinguished from susceptible strains (average growth rate),[8],less than 20 min
same,susceptibility of the strain to the drug,[5],susceptible
same,time in which treatment curve can be distinguished from no treatment curve (average growth rate),[5]; erythromycin 120 μg/ml,< 10 min
same,time in which curve of drug for which strain is susceptible can be distinguished from curve of drug for which strain is resistant,[5]; erythromycin 120 μg/ml versus ciprofloxacin 10 μg/ml,< 15 min
